Results published in US9532990B2 (Zhejiang DTRM Biopharma Co. Ltd., priority 2014, dated 2017).

Columns and labels:
TMD-8 cells = assay: Inhibition assay of tumor cell activity (cell viability); type: cell-based, human; settings: single agent, 48 hours, AVG
Protocol: Inhibition Assay of Tumor Cell Activity:
Tumor cells (TMD-8, DoHH2 and WSU-DLCL2) were transferred and attached to 96-well plates. After one night, blank buffer and selected concentrations (0.01 nM-100 μM) of the test compound solution were added. After 48 hours incubation, CellTiter-Go was added to lyse the cells. Recording luminescent signal and calculate the percent inhibition of cell viability.
TMD-8 is a sensitive human diffuse large B-cell lymphoma cell line, and DoHH2 is a more difficult to treat human follicular lymphoma cell line, while WSU-DLCL2 is a multi-drug resistant (MDR) human non-Hodgkin's lymphoma cell line. Drug combination therapies provided better efficacies in all three tumor models than single targeted agent alone.

[1] = Toxicity and toxicokinetic studies, 28-day rat and dog; settings: 28-day rat and dog studies
Description: Toxicity and toxicokinetic (TK) studies of the compounds can be performed by well known methods.

[2] = Toxicokinetic (TK) study in dogs, 28-day; type: in vivo, dog; settings: for Cmax / Tmax / AUC(0-t): dog, in vivo; for AUC(0-t): read-out: AUC0-24 h
[3] = Toxicokinetic (TK) study in rats, 28-day; type: in vivo, rat; settings: for Cmax / Tmax / AUC(0-t): rat, in vivo; for AUC(0-t): read-out: AUC0-24 h
[4] = Pharmacokinetic study in Beagle dogs; type: in vivo; settings: dog, plasma
Protocol: […] Each group has three animals. For group of intravenous administration, blood samples were collected at pre-dose, 0.033, 0.083, 0.25, 0.5, 1, 3, 6, 9, 24 h post-dose; for group of oral administration, blood samples were collected at pre-dose, 0.083, 0.25, 0.5, 1, 3, 6, 9, 24 h post-dose. After blood collection, HPLC-MS/MS was applied to determine plasma concentrations of the compound.

TMD-8 lymphoma xenograft = TMD-8 lymphoma xenograft SCID mouse model; type: in vivo; settings: BID; for Antitumor effect: Oral
Protocol: Compounds (Compounds 45 and others) alone and its combinations were evaluated against tumor growth in xenograft models in female CB-17 SCID mice. The TMD-8, DoHH2, WSU-DLCL2 tumor cells were maintained in vitro as a suspension culture in RPMI-1640 medium supplemented with 10% heat inactivated fetal calf serum at 37° C. in an atmosphere of 5% CO2 in air. The tumor cells were routinely subcultured twice weekly. The cells growing in an exponential growth phase were harvested and counted for tumor inoculation. Each mouse was inoculated subcutaneously at the right flank with the tumor cells (10×10^6) in 0.2 ml of PBS with Matrigel (1:1) for tumor development. The treatments were started after the average tumor size reached approximately 100-200 mm^3. Each group consisted of 6-10 tumor-bearing mice. The testing article (vehicle, compound or combination) was orally administrated to the mice according to the predetermined doses for 14-days or 21-days. Animal body weight and tumor volume were measured every 2-or 3-days throughout the treatment.

[5] = female, 15 mg/kg/day, Study Day 1, Female
[6] = female, 15 mg/kg/day, Study Day 28, Female
[7] = female, 45 mg/kg/day, Study Day 1, Female
[8] = female, 45 mg/kg/day, Study Day 28, Female
[9] = female, 105 mg/kg/day, Study Day 28, Female
[10] = female, 150 mg/kg/day, Study Day 1, Female
[11] = male, 15 mg/kg/day, Study Day 1, Male
[12] = male, 15 mg/kg/day, Study Day 28, Male
[13] = male, 45 mg/kg/day, Study Day 1, Male
[14] = male, 45 mg/kg/day, Study Day 28, Male
[15] = male, 105 mg/kg/day, Study Day 28, Male
[16] = male, 150 mg/kg/day, Study Day 1, Male
[17] = female, 40 mg/kg, Study Day 1, Female
[18] = female, 40 mg/kg, Study Day 28, Female
[19] = female, 100 mg/kg, Study Day 1, Female
[20] = female, 100 mg/kg, Study Day 28, Female
[21] = female, 200 mg/kg, Study Day 1, Female
[22] = female, 200 mg/kg, Study Day 28, Female
[23] = male, 40 mg/kg, Study Day 1, Male
[24] = male, 40 mg/kg, Study Day 28, Male
[25] = male, 100 mg/kg, Study Day 1, Male
[26] = male, 100 mg/kg, Study Day 28, Male
[27] = male, 200 mg/kg, Study Day 1, Male
[28] = male, 200 mg/kg, Study Day 28, Male

AUC(0-inf) ([4]; IV, 2 mg/kg, mean): 987 ng·h/mL
AUC(0-t) ([4]; IV, 2 mg/kg, mean): 977 ng·h/mL
C0 ([4]; IV, 2 mg/kg, mean): 663 ng/mL
clearance ([4]; IV, 2 mg/kg, mean): 34.6 mL/min/kg
half-life ([4]; IV, 2 mg/kg, mean): 2.27 h
Vd ([4]; IV, 2 mg/kg, mean, read-out: Vdss): 4.24 L/kg
bioavailability ([4]; PO, 5 mg/kg): 26.2%
AUC(0-inf) ([4]; PO, 5 mg/kg, mean): 574 ng·h/mL
AUC(0-t) ([4]; PO, 5 mg/kg, mean): 650 ng·h/mL
Cmax ([4]; PO, 5 mg/kg, mean): 189 ng/mL
Tmax ([4]; PO, 5 mg/kg, mean): 1.17 h
half-life ([4]; PO, 5 mg/kg, mean): 2.92 h
Structure (SMILES): C=CC(=O)N1CC[C@@H](n2nc(-c3ccc(Oc4c(F)c(F)cc(F)c4F)cc3F)c3c(N)ncnc32)C1 [Compound 45, 1-((R)-3-(4-amino-3-(2-fluoro-4-(2,3,5,6-tetrafluorophenoxy)phenyl)-1H-pyrazolo[3,4-d]pyrimidin-1-yl)pyrrolidin-1-yl)prop-2-en-1-one]
Inh % TMD-8 cell viability (TMD-8 cells; 0.01 μM): 51.66%
Inh % TMD-8 cell viability (TMD-8 cells; 0.1 μM): 52.40%
Inh % TMD-8 cell viability (TMD-8 cells; 1 uM): 55.05%
drug exposure, Day 1 versus Day 28 [1]: no significant difference in drug exposure between Day 1 and Day 28
drug exposure, male versus female [1]: no significant difference in drug exposure between male and female
AUC compared with ibrutinib ([2]; TK data): significantly higher than that of ibrutinib
Cmax [2, 5]: 685 ± 212 ng/mL
Tmax [2, 5]: 1 h
AUC(0-t) [2, 5]: 2930 ng·h/mL
Cmax [2, 6]: 687 ± 123 ng/mL
Tmax [2, 6]: 2 h
AUC(0-t) [2, 6]: 3730 ± 549 ng·h/mL
Cmax [2, 7]: 1220 ± 431 ng/mL
Tmax [2, 7]: 2 h
AUC(0-t) [2, 7]: 6220 ± 3000 ng·h/mL
Cmax [2, 8]: 1060 ± 263 ng/mL
Tmax [2, 8]: 2 h
AUC(0-t) [2, 8]: 8130 ± 1490 ng·h/mL
Cmax [2, 9]: 2420 ± 670 ng/mL
Tmax [2, 9]: 2 h
AUC(0-t) [2, 9]: 17300 ± 2830 ng·h/mL
Cmax [2, 10]: 1850 ± 605 ng/mL
Tmax [2, 10]: 2 h
AUC(0-t) [2, 10]: 11200 ± 5990 ng·h/mL
Cmax [2, 11]: 746 ng/mL
Tmax [2, 11]: 2 h
AUC(0-t) [2, 11]: 3550 ng·h/mL
Cmax [2, 12]: 576 ± 145 ng/mL
Tmax [2, 12]: 2 h
AUC(0-t) [2, 12]: 3260 ± 732 ng·h/mL
Cmax [2, 13]: 1240 ± 381 ng/mL
Tmax [2, 13]: 2 h
AUC(0-t) [2, 13]: 6480 ± 1670 ng·h/mL
Cmax [2, 14]: 1470 ± 538 ng/mL
Tmax [2, 14]: 2 h
AUC(0-t) [2, 14]: 9170 ± 3810 ng·h/mL
Cmax [2, 15]: 2700 ± 769 ng/mL
Tmax [2, 15]: 2 h
AUC(0-t) [2, 15]: 16400 ± 5410 ng·h/mL
Cmax [2, 16]: 2460 ± 858 ng/mL
Tmax [2, 16]: 4 h
AUC(0-t) [2, 16]: 22900 ± 13900 ng·h/mL
AUC compared with ibrutinib ([3]; TK data): significantly higher than that of ibrutinib
Cmax [3, 17]: 2660 ng/mL
Tmax [3, 17]: 1 h
AUC(0-t) [3, 17]: 17300 ng·h/mL
Cmax [3, 18]: 2970 ng/mL
Tmax [3, 18]: 1 h
AUC(0-t) [3, 18]: 17300 ng·h/mL
Cmax [3, 19]: 3700 ng/mL
Tmax [3, 19]: 4 h
AUC(0-t) [3, 19]: 28900 ng·h/mL
Cmax [3, 20]: 3830 ng/mL
Tmax [3, 20]: 1 h
AUC(0-t) [3, 20]: 29600 ng·h/mL
Cmax [3, 21]: 4680 ng/mL
Tmax [3, 21]: 4 h
AUC(0-t) [3, 21]: 65200 ng·h/mL
Cmax [3, 22]: 5490 ng/mL
Tmax [3, 22]: 8 h
AUC(0-t) [3, 22]: 60200 ng·h/mL
Cmax [3, 23]: 2160 ng/mL
Tmax [3, 23]: 2 h
AUC(0-t) [3, 23]: 13700 ng·h/mL
Cmax [3, 24]: 2090 ng/mL
Tmax [3, 24]: 2 h
AUC(0-t) [3, 24]: 15400 ng·h/mL
Cmax [3, 25]: 2740 ng/mL
Tmax [3, 25]: 2 h
AUC(0-t) [3, 25]: 21700 ng·h/mL
Cmax [3, 26]: 3990 ng/mL
Tmax [3, 26]: 2 h
AUC(0-t) [3, 26]: 30300 ng·h/mL
Cmax [3, 27]: 4220 ng/mL
Tmax [3, 27]: 2 h
AUC(0-t) [3, 27]: 37600 ng·h/mL
Cmax [3, 28]: 4540 ng/mL
Tmax [3, 28]: 2 h
AUC(0-t) [3, 28]: 45100 ng·h/mL
Antitumor effect (TMD-8 lymphoma xenograft; 5 mg/kg, 21 days (FIG. 2)): 33%
Antitumor effect (TMD-8 lymphoma xenograft; 10 mg/kg, 14 days (FIG. 1)): 64%
Antitumor effect (TMD-8 lymphoma xenograft; 30 mg/kg, 14 days (FIG. 1)): 82%
Antitumor effect (TMD-8 lymphoma xenograft; 90 mg/kg, 14 days (FIG. 1)): 93%
TMD-8 tumor growth suppression (TMD-8 lymphoma xenograft; multiple doses, p.o., 14 days (FIG. 1)): significant TMD-8 tumor growth suppressions were dose-depended
